For test [1], the target named is Casein kinase II subunit alpha' (Homo sapiens) (UniProt P19784). In words: Inhibition of CSNK2A2 (unknown origin) assessed as residual activity at 100 nM by KINOMEscan analysis relative to control.
Test [2] has as its target Cyclin-dependent kinase 5 (Homo sapiens) (UniProt Q00535). In words: Inhibition of CDK5 (unknown origin) assessed as residual activity at 100 nM by KINOMEscan analysis relative to control.
In test [3] the target is T1, Cyclin-dependent kinase 11A (Homo sapiens) (UniProt Q9UQ88).
T1 sequence (whole entry): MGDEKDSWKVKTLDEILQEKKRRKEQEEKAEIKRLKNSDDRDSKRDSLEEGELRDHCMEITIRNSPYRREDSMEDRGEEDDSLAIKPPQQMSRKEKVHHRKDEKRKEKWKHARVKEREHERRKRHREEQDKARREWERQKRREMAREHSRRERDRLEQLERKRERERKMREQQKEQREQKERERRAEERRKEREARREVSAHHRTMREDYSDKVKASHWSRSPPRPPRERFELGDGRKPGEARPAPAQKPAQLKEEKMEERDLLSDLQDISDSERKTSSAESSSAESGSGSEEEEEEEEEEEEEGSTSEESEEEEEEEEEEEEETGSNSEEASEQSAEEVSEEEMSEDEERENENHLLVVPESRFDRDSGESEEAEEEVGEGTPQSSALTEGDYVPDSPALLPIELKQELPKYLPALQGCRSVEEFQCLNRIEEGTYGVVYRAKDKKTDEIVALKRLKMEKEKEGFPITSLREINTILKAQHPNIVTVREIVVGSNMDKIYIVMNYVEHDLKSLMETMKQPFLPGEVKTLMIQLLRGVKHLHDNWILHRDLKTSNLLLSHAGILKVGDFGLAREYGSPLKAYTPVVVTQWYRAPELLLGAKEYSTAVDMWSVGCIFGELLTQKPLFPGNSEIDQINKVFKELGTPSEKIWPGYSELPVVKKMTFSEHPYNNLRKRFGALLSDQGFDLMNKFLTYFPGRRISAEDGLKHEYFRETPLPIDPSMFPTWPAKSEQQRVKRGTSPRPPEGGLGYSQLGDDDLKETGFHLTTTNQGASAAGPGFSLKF
In words: Inhibition of CDC2L2 (unknown origin) assessed as residual activity at 100 nM by KINOMEscan analysis relative to control.

For test [4], the target named is RAC-beta serine/threonine-protein kinase (Homo sapiens) (UniProt P31751). As to the kind of experiment: Inhibition of AKT2 (unknown origin) assessed as residual activity at 100 nM by KINOMEscan analysis relative to control.
Chain of RAC-beta serine/threonine-protein kinase (Homo sapiens) (P31751 whole entry): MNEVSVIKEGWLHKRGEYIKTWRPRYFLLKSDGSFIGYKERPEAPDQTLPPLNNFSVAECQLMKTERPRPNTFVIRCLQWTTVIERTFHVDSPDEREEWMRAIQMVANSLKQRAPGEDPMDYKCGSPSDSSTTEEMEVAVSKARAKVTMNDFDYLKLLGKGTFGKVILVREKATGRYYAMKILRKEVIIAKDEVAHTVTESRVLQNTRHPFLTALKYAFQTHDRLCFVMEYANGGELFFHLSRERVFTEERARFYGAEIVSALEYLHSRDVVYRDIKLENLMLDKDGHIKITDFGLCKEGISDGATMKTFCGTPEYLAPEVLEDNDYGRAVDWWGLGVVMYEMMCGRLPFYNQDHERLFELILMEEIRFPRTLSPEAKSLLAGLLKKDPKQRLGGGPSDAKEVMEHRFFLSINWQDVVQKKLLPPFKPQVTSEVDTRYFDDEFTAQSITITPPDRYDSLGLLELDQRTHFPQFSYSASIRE
The target of test [5] is Tyrosine-protein kinase Yes (Homo sapiens) (UniProt P07947). In words: Inhibition of YES (unknown origin) assessed as residual activity at 100 nM by KINOMEscan analysis relative to control.
Test [6] addresses Peripheral plasma membrane protein CASK (Homo sapiens) (UniProt O14936). In words: Inhibition of CASK (unknown origin) assessed as residual activity at 100 nM by KINOMEscan analysis relative to control.
Test [7] has as its target Transient receptor potential cation channel subfamily M member 6 (Homo sapiens) (UniProt Q9BX84). As to the kind of experiment: Inhibition of TRPM6 (unknown origin) assessed as residual activity at 100 nM by KINOMEscan analysis relative to control.
Test [8] has as its target T2, Serine/threonine-protein kinase RIO3 (Homo sapiens) (UniProt O14730).
T2 sequence (whole entry): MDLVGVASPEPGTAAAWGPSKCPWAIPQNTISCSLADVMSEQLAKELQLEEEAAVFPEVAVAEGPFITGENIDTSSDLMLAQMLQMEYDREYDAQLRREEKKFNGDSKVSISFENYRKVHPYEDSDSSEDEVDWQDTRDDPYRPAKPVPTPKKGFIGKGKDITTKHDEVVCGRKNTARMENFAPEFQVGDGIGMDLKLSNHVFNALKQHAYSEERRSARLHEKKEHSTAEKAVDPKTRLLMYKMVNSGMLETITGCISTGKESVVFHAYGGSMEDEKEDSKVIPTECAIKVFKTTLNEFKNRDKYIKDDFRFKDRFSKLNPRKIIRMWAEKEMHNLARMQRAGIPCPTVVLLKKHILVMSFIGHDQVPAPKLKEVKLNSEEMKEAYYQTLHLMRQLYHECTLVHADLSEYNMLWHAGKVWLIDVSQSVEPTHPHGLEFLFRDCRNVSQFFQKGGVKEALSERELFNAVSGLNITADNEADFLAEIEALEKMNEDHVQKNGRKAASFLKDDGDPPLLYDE
In words: Inhibition of RIOK3 (unknown origin) assessed as residual activity at 100 nM by KINOMEscan analysis relative to control.

Test [9] has as its target T3, Myosin light chain kinase family member 4 (Homo sapiens) (UniProt Q86YV6).
T3 sequence (whole entry): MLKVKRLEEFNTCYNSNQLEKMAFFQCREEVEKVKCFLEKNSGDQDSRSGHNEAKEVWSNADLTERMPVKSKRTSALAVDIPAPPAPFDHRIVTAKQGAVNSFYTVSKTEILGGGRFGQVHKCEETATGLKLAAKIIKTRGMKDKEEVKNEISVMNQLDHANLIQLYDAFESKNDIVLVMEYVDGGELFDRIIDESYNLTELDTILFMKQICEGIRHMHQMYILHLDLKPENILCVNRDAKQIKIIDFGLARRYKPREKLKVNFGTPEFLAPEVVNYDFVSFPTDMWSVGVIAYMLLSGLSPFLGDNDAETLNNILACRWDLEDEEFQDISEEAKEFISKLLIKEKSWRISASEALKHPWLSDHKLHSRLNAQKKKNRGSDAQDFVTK
In words: Inhibition of MYLK4 (unknown origin) assessed as residual activity at 100 nM by KINOMEscan analysis relative to control.

Test [10] addresses Casein kinase I isoform epsilon (Homo sapiens) (UniProt P49674). In words: Inhibition of CSNK1E (unknown origin) assessed as residual activity at 100 nM by KINOMEscan analysis relative to control.
In test [11] the target is Tyrosine-protein kinase JAK1 (Homo sapiens) (UniProt P23458). In words: Inhibition of JAK1 JH2 pseudokinase domain (unknown origin) assessed as residual activity at 100 nM by KINOMEscan analysis relative to control.
Test [12] concerns the target Casein kinase I isoform gamma-1 (Homo sapiens) (UniProt Q9HCP0). In words: Inhibition of CSNK1G1 (unknown origin) assessed as residual activity at 100 nM by KINOMEscan analysis relative to control.
Test [13] has as its target Cyclin-dependent kinase 18 (Homo sapiens) (UniProt Q07002). As to the kind of experiment: Inhibition of PCTK3 (unknown origin) assessed as residual activity at 100 nM by KINOMEscan analysis relative to control.
Test [14] has as its target Phosphorylase b kinase gamma catalytic chain, skeletal muscle/heart isoform (Homo sapiens) (UniProt Q16816). As to the kind of experiment: Inhibition of PHKG1 (unknown origin) assessed as residual activity at 100 nM by KINOMEscan analysis relative to control.

Chain of Casein kinase I isoform gamma-1 (Homo sapiens) (Q9HCP0 whole entry, looked up, canonical isoform): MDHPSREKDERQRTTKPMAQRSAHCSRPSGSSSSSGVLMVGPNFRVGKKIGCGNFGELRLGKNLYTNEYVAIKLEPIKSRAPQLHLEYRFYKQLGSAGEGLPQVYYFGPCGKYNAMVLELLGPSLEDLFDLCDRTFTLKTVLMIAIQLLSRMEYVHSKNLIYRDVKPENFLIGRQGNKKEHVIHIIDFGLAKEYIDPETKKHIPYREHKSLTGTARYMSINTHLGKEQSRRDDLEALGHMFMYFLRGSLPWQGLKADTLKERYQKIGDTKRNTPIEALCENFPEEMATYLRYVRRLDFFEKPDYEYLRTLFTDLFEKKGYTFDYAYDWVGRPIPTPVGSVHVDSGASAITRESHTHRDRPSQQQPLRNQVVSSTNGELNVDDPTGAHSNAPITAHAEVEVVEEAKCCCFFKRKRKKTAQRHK
Chain of Cyclin-dependent kinase 18 (Homo sapiens) (Q07002 whole entry, canonical isoform): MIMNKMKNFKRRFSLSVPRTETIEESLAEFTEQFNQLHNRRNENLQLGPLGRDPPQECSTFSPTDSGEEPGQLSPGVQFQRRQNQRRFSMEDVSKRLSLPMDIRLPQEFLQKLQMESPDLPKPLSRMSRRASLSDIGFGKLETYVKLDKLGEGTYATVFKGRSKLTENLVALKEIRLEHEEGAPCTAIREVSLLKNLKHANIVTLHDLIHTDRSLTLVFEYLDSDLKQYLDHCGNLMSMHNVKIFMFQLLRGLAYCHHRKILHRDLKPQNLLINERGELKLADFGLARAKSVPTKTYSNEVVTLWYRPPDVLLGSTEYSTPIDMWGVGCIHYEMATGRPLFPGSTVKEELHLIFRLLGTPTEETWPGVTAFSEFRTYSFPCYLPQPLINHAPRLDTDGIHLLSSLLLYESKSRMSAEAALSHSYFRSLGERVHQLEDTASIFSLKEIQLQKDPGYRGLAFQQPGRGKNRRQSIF
Chain of Transient receptor potential cation channel subfamily M member 6 (Homo sapiens) (Q9BX84 whole entry): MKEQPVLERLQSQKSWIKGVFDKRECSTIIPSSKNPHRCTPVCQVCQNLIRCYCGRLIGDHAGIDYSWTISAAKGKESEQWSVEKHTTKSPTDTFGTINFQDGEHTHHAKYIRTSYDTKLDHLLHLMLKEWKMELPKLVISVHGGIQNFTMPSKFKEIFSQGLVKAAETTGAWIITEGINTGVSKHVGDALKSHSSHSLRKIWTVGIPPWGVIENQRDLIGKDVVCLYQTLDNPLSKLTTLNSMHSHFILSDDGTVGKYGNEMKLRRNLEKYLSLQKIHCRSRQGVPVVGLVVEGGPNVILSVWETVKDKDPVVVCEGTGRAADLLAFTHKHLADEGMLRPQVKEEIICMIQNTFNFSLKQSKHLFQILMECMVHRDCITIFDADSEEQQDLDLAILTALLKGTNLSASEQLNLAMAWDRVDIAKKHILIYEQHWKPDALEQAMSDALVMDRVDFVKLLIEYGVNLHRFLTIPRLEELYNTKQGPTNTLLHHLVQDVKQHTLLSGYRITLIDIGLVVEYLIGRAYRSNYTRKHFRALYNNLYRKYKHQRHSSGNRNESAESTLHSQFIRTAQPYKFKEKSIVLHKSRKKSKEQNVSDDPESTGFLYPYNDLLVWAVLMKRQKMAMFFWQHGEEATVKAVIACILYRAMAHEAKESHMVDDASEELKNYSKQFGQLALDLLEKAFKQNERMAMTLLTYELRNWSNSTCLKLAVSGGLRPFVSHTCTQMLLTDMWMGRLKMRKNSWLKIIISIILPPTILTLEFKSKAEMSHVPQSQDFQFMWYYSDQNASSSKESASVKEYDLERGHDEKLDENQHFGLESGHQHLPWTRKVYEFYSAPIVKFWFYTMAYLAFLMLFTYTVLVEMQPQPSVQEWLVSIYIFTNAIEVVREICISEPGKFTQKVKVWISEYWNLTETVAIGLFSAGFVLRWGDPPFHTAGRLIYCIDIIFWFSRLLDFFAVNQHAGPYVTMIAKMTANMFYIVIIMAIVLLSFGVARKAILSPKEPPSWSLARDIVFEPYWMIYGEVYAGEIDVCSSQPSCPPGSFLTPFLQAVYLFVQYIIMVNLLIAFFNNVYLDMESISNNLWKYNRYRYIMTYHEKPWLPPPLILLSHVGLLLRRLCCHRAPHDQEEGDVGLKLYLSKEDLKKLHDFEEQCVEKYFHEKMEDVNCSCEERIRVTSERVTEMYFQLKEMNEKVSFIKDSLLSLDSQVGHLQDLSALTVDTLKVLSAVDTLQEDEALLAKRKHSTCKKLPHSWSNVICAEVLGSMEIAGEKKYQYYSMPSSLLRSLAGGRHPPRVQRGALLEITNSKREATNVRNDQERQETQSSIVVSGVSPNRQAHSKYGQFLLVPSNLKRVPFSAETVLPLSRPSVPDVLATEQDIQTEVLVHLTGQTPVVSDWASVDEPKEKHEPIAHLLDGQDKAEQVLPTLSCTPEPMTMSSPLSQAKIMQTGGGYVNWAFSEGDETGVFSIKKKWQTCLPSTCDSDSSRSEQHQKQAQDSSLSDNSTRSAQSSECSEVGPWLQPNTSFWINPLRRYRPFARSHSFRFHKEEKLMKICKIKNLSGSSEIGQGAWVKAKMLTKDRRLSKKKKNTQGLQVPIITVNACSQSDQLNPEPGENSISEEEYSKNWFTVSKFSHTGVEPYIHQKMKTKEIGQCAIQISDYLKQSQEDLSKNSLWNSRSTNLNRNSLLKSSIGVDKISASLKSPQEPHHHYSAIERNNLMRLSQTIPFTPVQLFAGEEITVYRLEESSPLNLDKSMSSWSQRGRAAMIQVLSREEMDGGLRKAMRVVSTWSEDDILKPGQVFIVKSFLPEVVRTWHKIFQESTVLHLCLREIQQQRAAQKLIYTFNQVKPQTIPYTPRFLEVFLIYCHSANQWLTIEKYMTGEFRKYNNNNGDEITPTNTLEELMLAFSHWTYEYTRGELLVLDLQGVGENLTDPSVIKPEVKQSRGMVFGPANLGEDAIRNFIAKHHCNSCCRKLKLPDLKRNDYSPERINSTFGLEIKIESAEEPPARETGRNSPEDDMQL
Chain of Cyclin-dependent kinase 5 (Homo sapiens) (Q00535 whole entry, looked up): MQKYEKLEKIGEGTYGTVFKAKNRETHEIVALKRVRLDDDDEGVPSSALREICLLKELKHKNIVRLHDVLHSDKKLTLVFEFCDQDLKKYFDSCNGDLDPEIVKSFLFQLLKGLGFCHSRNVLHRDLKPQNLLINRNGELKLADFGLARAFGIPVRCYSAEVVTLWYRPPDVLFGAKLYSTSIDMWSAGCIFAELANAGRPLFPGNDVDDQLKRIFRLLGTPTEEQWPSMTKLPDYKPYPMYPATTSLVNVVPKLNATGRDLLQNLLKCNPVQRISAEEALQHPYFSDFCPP
Chain of Casein kinase II subunit alpha' (Homo sapiens) (P19784 whole entry, looked up): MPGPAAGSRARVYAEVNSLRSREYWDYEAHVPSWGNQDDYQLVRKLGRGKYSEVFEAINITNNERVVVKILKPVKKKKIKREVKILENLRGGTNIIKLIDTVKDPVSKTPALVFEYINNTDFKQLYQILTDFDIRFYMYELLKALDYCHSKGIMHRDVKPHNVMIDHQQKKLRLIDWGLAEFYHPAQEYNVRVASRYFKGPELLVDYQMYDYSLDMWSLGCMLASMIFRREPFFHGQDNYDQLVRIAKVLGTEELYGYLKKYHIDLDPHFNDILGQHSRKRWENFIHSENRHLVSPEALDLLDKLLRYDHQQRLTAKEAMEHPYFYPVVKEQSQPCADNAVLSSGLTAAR
Chain of Peripheral plasma membrane protein CASK (Homo sapiens) (O14936 whole entry, looked up): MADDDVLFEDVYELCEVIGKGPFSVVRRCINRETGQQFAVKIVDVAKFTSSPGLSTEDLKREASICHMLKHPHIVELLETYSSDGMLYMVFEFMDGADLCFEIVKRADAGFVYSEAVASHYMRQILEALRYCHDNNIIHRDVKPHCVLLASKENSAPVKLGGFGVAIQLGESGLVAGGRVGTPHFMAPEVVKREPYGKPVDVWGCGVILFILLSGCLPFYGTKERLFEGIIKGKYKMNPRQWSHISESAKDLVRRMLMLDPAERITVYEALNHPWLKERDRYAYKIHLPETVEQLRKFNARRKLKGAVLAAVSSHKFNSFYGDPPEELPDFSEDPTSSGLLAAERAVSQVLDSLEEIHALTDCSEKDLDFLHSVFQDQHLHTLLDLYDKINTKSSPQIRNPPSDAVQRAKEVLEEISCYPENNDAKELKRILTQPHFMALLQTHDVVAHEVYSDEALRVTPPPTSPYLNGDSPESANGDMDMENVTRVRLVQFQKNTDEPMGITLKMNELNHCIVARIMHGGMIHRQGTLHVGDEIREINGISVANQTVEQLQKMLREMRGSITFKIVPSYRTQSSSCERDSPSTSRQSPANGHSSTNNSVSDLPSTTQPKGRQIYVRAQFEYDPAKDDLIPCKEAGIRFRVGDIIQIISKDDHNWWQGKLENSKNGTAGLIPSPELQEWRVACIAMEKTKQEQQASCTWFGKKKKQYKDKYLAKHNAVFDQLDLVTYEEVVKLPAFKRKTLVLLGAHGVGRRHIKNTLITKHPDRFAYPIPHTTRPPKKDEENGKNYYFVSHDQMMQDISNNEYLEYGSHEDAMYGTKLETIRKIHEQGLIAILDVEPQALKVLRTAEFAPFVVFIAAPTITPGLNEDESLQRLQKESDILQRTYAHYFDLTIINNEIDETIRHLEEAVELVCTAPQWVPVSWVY

For `COc1cc2ncnc(N[C@H](C)c3cccc4ccccc34)c2cc1OC`, the Activity was 87% in test [1]; 83% in test [2]; 82% in [3]; 88% in test [4]; 100% in [5]; 72% in test [6]. Moreover, the Activity in [7] worked out at 84%; in test [8] it was 75%; in test [9], 99%; in test [10], 97%; in [11], 100%; in test [12], 99%. Besides, the Activity stood at 76% in [13] and 100% in [14].

The values above are taken from ChEMBL document CHEMBL5678818, “Discovery of potent SOS1 inhibitors that block RAS activation via disruption of the RAS-SOS1 interaction” (Proc Natl Acad Sci U S A, 2019).
